Experimental data published in the supplement of paper PMC11061612.

Experiments:
Assay in all cases: Bliss excess, mean over the matrix (fraction); higher = more synergy
[1] = system: 23132-87 (Gastric Carcinoma)
How it was run: (§1)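 Cell lines in DMEM/F12 or RPMI with 10% FBS were plated in 1536-well plates, held 24 hours at 37°C, 5% CO2, then given two-drug dose matrices for 72 hours (DMSO typically 0.2%). Viability was read by CellTiter-Glo 2.0 luminescence and scaled as inhibition from 0 (vehicle wells) to 1 (blank wells). Combination Emax is the second-highest inhibition in the matrix; Bliss excess is observed combination effect minus expected EA + EB − EA·EB, EA and EB being single-agent effects.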

[2] = system: CAL-120 (Breast Carcinoma)
How it was run: as §1

[3] = system: COLO-680N (Esophageal Squamous Cell Carcinoma)
How it was run: as §1

GB-1 (Glioblastoma) = system: GB-1 (Glioblastoma)
How it was run: as §1

[4] = system: GP5d (Colorectal Carcinoma)
How it was run: as §1

[5] = system: HEC-1 (Endometrial Carcinoma)
How it was run: as §1

[6] = system: HSC-39 (Gastric Carcinoma)
How it was run: as §1

IST-MES1 (Mesothelioma) = system: IST-MES1 (Mesothelioma)
How it was run: as §1

[7] = system: LB996-RCC (Kidney Carcinoma)
How it was run: as §1

LN-229 (Glioblastoma) = system: LN-229 (Glioblastoma)
How it was run: as §1

[8] = system: MFE-280 (Endometrial Carcinoma)
How it was run: as §1

[9] = system: MKN45 (Gastric Carcinoma)
How it was run: as §1

[10] = system: NCI-H23 (Lung Adenocarcinoma)
How it was run: as §1

[11] = system: NCI-H2342 (Lung Adenocarcinoma)
How it was run: as §1

[12] = system: OAW-42 (Ovarian Carcinoma)
How it was run: as §1

[13] = system: RCM-1 (Colorectal Carcinoma)
How it was run: as §1

[14] = system: RERF-GC-1B (Gastric Carcinoma)
How it was run: as §1

[15] = system: RERF-LC-Sq1 (Squamous Cell Lung Carcinoma)
How it was run: as §1

[16] = system: SU-DHL-10 (B-Cell Non-Hodgkin's Lymphoma)
How it was run: as §1

[17] = system: VAL (B-Cell Non-Hodgkin's Lymphoma)
How it was run: as §1

SMILES | Bliss excess [1] | Bliss excess [2] | Bliss excess [3] | Bliss excess (GB-1 (Glioblastoma)) | Bliss excess [4] | Bliss excess [5] | Bliss excess [6] | Bliss excess (IST-MES1 (Mesothelioma)) | Bliss excess [7] | Bliss excess (LN-229 (Glioblastoma)) | Bliss excess [8] | Bliss excess [9] | Bliss excess [10] | Bliss excess [11] | Bliss excess [12] | Bliss excess [13] | Bliss excess [14] | Bliss excess [15] | Bliss excess [16] | Bliss excess [17]
COc1nnc2ccc(N3CCC(c4ccc(OCCN5CCN(C)C(=O)[C@H]5C)cc4)CC3)nn12 [AZD5153] + Cc1c2c(nn1C)CSCc1cc(n(C)n1)CSc1cc(c3ccccc3c1)OCCCc1c(C(=O)O)n(C)c3c-2c(Cl)ccc13 [AZD5991] (first compound max 1 µM, 7x7, partner max 1 µM) | 0.0791 | 0.0048 | -0.0205 | -0.0513 | -0.0569 | 0.0132 | 0.0135 | -0.0031 | 0.0015 | 0.0175 | -0.0473 | -0.0635 | -0.086 | 0.0192 | 0.0444 | -0.0512 | 0.0602 | -0.0393 | -0.03 | -0.112
COc1nnc2ccc(N3CCC(c4ccc(OCCN5CCN(C)C(=O)[C@H]5C)cc4)CC3)nn12 [AZD5153] + Cn1cnc2c(F)c(Nc3ccc(Br)cc3Cl)c(C(=O)NOCCO)cc21 [Selumetinib] (first compound max 1 µM, 7x7, partner max 10 µM) | -0.036 | 0.0386 | 0.0131 | -0.035 | -0.0805 | -0.0115 | -0.0013 | 0.0054 | -0.0728 | -0.0426 | 0.0114 | -0.0237 | -0.0027 | 0.0267 | 0.02 | -0.008 | 0.0579 | 0.102 | 0.0107 | -0.0157
Cc1c2c(nn1C)CSCc1cc(n(C)n1)CSc1cc(c3ccccc3c1)OCCCc1c(C(=O)O)n(C)c3c-2c(Cl)ccc13 [AZD5991] + C1CN(CCC1(C(=O)N[C@@H](CCO)C2=CC=C(C=C2)Cl)N)C3=NC=NC4=C3C=CN4 [Capivasertib] (first compound max 1 µM, 7x7, partner max 3 µM) | -0.0492 | 0.0424 | -0.0223 | -0.0365 | -0.0493 | -0.025 | 0.0308 | -0.0195 | 0.0013 | 0.0178 | 0.027 | -0.0262 | -0.0276 | 0.0351 | 0.0312 | 0.0005 | -0.0124 | 0.0125 | -0.0047 | -0.0223
Cc1c2c(nn1C)CSCc1cc(n(C)n1)CSc1cc(c3ccccc3c1)OCCCc1c(C(=O)O)n(C)c3c-2c(Cl)ccc13 [AZD5991] + C=CCn1c(=O)c2cnc(Nc3ccc(N4CCN(C)CC4)cc3)nc2n1-c1cccc(C(C)(C)O)n1 [AZD1775] (first compound max 1 µM, partner max 1 µM) | 0.0274 | -0.0143 | 0.0254 | 0.0148 | -0.0133 | 0.0192 | 0.0058 | 0.0383 | -0.008 | 0.0754 | 0.0045 | -0.0456 | -0.0174 | -0.0144 | 0.0001 | -0.0271 | 0.0041 | 0.0112 | 0.0259 | -0.114
Cc1c2c(nn1C)CSCc1cc(n(C)n1)CSc1cc(c3ccccc3c1)OCCCc1c(C(=O)O)n(C)c3c-2c(Cl)ccc13 [AZD5991] + CC1(C)CCC(CN2CCN(c3ccc(C(=O)NS(=O)(=O)c4ccc(NCC5CCOCC5)c([N+](=O)[O-])c4)c(Oc4cnc5[nH]ccc5c4)c3)CC2)=C(c2ccc(Cl)cc2)C1 [Venetoclax] (first compound max 1 µM, 7x7, partner max 1 µM) | 0.0019 | -0.0284 | -0.0255 | -0.0257 | -0.0134 | -0.0543 | 0.0266 | -0.0239 | -0.0251 | -0.0271 | -0.0225 | -0.0206 | -0.0077 | -0.0599 | 0.0028 | 0.0136 | -0.0126 | -0.0191 | -0.0173 | 0.0963
Cc1c2c(nn1C)CSCc1cc(n(C)n1)CSc1cc(c3ccccc3c1)OCCCc1c(C(=O)O)n(C)c3c-2c(Cl)ccc13 [AZD5991] + CCN(CCO)CCCOc1ccc2c(Nc3cc(CC(=O)Nc4cccc(F)c4)[nH]n3)ncnc2c1 [AZD2811] (first compound max 1 µM, 7x7, partner max 1 µM) | -0.0075 | -0.0077 | 0.007 | -0.0318 | -0.0319 | 0.0547 | 0.0233 | -0.002 | -0.0388 | 0.0043 | 0.053 | -0.0123 | 0.0222 | -0.0613 | 0.0173 | -0.0249 | 0.014 | 0.043 | -0.0133 | -0.0541
Cc1c2c(nn1C)CSCc1cc(n(C)n1)CSc1cc(c3ccccc3c1)OCCCc1c(C(=O)O)n(C)c3c-2c(Cl)ccc13 [AZD5991] + CN(C)CCCOc1ccc(-c2ccc3ncc4c(c3c2)n(C2CCOCC2)c(=O)n4C)cn1 [AZD0156] (first compound max 1 µM, 7x7, partner max 1 µM) | -0.0643 | -0.036 | 0.0049 | 0.0075 | -0.0201 | -0.0025 | -0.0201 | 0.0029 | -0.0569 | 0.0024 | -0.0159 | -0.0594 | -0.0201 | -0.016 | 0.0454 | -0.0105 | 0.0263 | 0.0372 | -0.0258 | -0.0034
